Results from ChEMBL document CHEMBL1155064, “Discovery of aminoquinolines as a new class of potent inhibitors of heat shock protein 90 (Hsp90): Synthesis, biology, and molecular modeling” (Bioorg Med Chem, 2008).
The source made the active and inactive calls. No cut-off for these calls is given here.

Legend:
[1] = target: T1, Heat shock protein HSP90 (Homo sapiens, UniProt P07900+P08238); assay: Inhibition of Hsp90 in human MCF7 cell lysates assessed as interaction with Cy3b-conjugated geldanamycin by FP assay; assay type: cell-free
[2] = target: T1, Heat shock protein HSP90; assay: Inhibition of Hsp90 in human MCF7 cells assessed as Her2 level after 24 hrs by Western blot; assay type: cell-based
[3] = test system: MCF7; assay: Induction of Her2 degradation in human MCF7 cells after 24 hrs by Western blot analysis; assay type: functional, cell-based; conditions: MCF7, 24 h

`CCN(CC)CCCC(C)Nc1cc(O)cc2cccnc12` (stereo unspecified) was tested, and the IC50 [1] was 1.1 µM and the Activity [2] was “inactive”.
`CCC(CC)NCCCNc1cc(OC)cc2cccnc12` was tested, and the IC50 [1] was 40 µM and the IC50 [2] was 13 µM.
Work on `CCN(CC)CCCNc1cc(OC)c(Nc2ccccc2)c2cccnc12` yielded an IC50 [1] of 2.1 µM and an IC50 [2] of 25 µM.
`CCCCN(CCCC)CCNc1cc(OC)cc2cccnc12` was tested, and the IC50 [1] was 40 µM and the Activity [2] was “inactive”.
In the case of `Br.CCN(CC)CCCCCNc1cc(O)cc2cccnc12`, the IC50 [1] is reported as 0.73 µM, the IC50 [2] is reported as 1 µM and the IC50 [3] is reported as 1 µM.
For `NCCCCCNc1cc(O)cc2cccnc12`, the IC50 [1] was < 1 µM and the IC50 [2] was 20 µM.
Compound `COc1cc(NCCN(CC(C)C)CC(C)C)c2ncccc2c1` has an IC50 [1] of 4.9 µM and an IC50 [2] of 1.6 µM.
`CCCNCCCC(C)Nc1cc(OC)cc2c(C)ccnc12` (stereo unspecified) was tested, and the IC50 [1] was > 50 µM and the Activity [2] was “inactive”.
Compound `CC(CCN(C)C)Nc1cc(O)cc2cccnc12` (stereo unspecified) has an IC50 [1] of 0.8 µM and an IC50 [2] of 30 µM.
`COc1cc(NC(C)CCCNC(C)C)c2ncccc2c1OC` (stereo unspecified) gave an IC50 [1] of 44 µM and an IC50 [2] of 25 µM.
In the case of `COc1cc(NCCN(C(C)C)C(C)C)c2ncccc2c1`, the IC50 [1] is reported as 40 µM and the Activity [2] is reported as “inactive”.
With `CCC(N)CCNc1cc(O)cc2cccnc12` (stereo unspecified) the IC50 [1] was < 1.6 µM and the Activity [2] was “inactive”.
For `CCN(CC)CCCNc1cc(OC)cc2ccc(OC)nc12`, the IC50 [1] was 14 µM and the Activity [2] was “inactive”.
In the case of `CCCC(C)N(CC)CCNc1cc(OC)cc2cccnc12` (stereo unspecified), the IC50 [1] is reported as 8 µM and the Activity [2] is reported as “inactive”.
For `CCC(C)(C)NCCCCCNc1cc(OC)cc2cccnc12`, the IC50 [1] was > 50 µM and the Activity [2] was “inactive”.
For `COc1cc(NCCCCN)c2ncccc2c1`, the IC50 [1] was > 50 µM and the IC50 [2] was 25 µM.
In the case of `COc1cc(NCCCN(C(C)C)C(C)C)c2nc(OC)cc(Cl)c2c1`, the IC50 [1] is reported as > 50 µM and the Activity [2] is reported as “inactive”.
With `COc1cc(NC(C)CCCNC(C)C)c2ncccc2c1` (stereo unspecified) the IC50 [1] was 14.4 µM and the Activity [2] was “inactive”.
`CC(CCCN)Nc1cc(O)cc2cccnc12` (stereo unspecified) was tested, and the IC50 [1] was 1.8 µM and the Activity [2] was “inactive”.
In the case of `CC(N)CCCCNc1cc(O)cc2cccnc12` (stereo unspecified), the IC50 [1] is reported as < 1.6 µM and the IC50 [2] is reported as 20 µM.
In the case of `NCCCCNc1cc(O)cc2cccnc12`, the IC50 [1] is reported as < 1.6 µM and the Activity [2] is reported as “inactive”.
With `COc1ccc(Oc2c(OC)cc(NCCCCCNC(C)C)c3ncccc23)cc1` the IC50 [1] was > 50 µM and the Activity [2] was “inactive”.
In the case of `CC(C)NCCCCCNc1cc(O)cc2cccnc12`, the IC50 [1] is reported as 2.4 µM and the IC50 [2] is reported as 6 µM.
With `COc1cc(NC(C)CCCN)c2ncccc2c1Oc1ccc(Cl)cc1` (stereo unspecified) the IC50 [1] was > 50 µM and the Activity [2] was “inactive”.
`NCCCNc1cc(O)cc2cccnc12` was tested, and the IC50 [1] was 7.6 µM and the Activity [2] was “inactive”.
Work on `COc1cc(NCCCC(C)N)c2ncccc2c1.Cl.Cl` (stereo unspecified) yielded an IC50 [1] of 5.8 µM and an IC50 [2] of 5 µM.
`CCC(C)NCCNc1cc(OC)cc2cccnc12` (stereo unspecified) was tested, and the IC50 ([1]; read-out: IC50) was 3.1 µM and the Activity [2] was “inactive”.
With `CC(N)CCCNc1cc(O)cc2cccnc12` (stereo unspecified) the IC50 [1] was < 1.6 µM and the Activity [2] was “inactive”.
For `CCN(CC)CCCCNc1cc(O)cc2cccnc12`, the IC50 [1] was > 50 µM and the Activity [2] was “inactive”.
For `CC(C)NCCCC(C)Nc1cc(O)cc2cccnc12` (stereo unspecified), the IC50 [1] was < 1.6 µM and the Activity [2] was “inactive”.
